Target: T1, IgE-Tb binding to soluble IgE receptor FcεRIα-Y131A-AF488 (Homo sapiens, UniProt P0DOX4, N265Q/N371Q)
T1 construct: 86 nmoles of IgE-Fc(N265Q, N371Q) (Young et al., 1995)
Assay: In vitro FRET assay of IgE-Tb binding to FcεRIα receptor (protocol for most examples, 2 hours incubation)
Conditions: 5 nM IgE-Tb, 25 nM FcεRIα-Y131A-AF488; incubated 2 hours at room temperature; read-out: FRET IC50 range
Method: In vitro Biochemical Assay: Protocol for preparation of IgE-Tb reagent 86 nmoles of […]) (Young et al., 1995) at 172 μM in 100 mM NaHCO3, pH 9.5 was added to 1 mg of LanthaScreenTM Amine Reactive Tb Chelate (ThermoFisher catalogue number PV3583) and incubated for 16 hours at 20° C. The material was then buffer exchanged into Phosphate Buffered Saline (being, 137 mM NaCl, 2.7 mM KCl, 10 mM Na2HPO4, 1.8 mM K2HPO4, pH 7.4) and the material quantified and the degree of Tb conjugation determined by measuring the absorption at 280 nm and 343 nm. The integrity of the conjugated material was determined by analytical size exclusion chromatography on a 5200 HR 10×300 column (GE Healthcare). Typical conjugation ratios were 4:1 Tb:IgE-Fc. • Young R J., Owens, […]., Chan C M W., Shi J., Hide […]., Henry A J., Sutton B J., and Gould H J (1995) Protein Engineering 8:193-199 Protocol for preparation of […] reagent […] Oxidation was quenched with the addition of 40 μl of ethanediol and incubation for 60 minutes at 22° C. The protein was buffer exchanged in to conjugation buffer (50 mM NaHCO3, 150 mM NaCl, pH 9.5) and concentrated to 750 μM. 175 nmoles of protein was added to 1 mg of Alexa FluorTM 488 hydrazide (Invitrogen) and incubated for 16 hours at 22° C. […] The protein was buffer exchanged into Phosphate Buffered Saline (being, 137 mM NaCl, 2.7 mM KCl, 10 mM Na2HPO4, 1.8 mM K2HPO4, pH 7.4) and the material quantified and the degree of Alexa FluorTM 488 conjugation determined by measuring the absorption at 280 nm and 495 nm. The integrity of the conjugated material was determined by analytical size exclusion chromatography on a 5200 HR 10×300 column (GE Healthcare). Typical conjugation ratios were 2:1 Alexa FluorTM488: sFcεR1α • Cook J P D., Henry […]., Owens R J., Sutton B J., and Gould H J (1997) Biochemistry 36:15579-15588 The aim was to measure binding of IgE-Tb to receptor, and the inhibition thereof by compounds, using an in vitro Fluorescence Resonance Energy Transfer (FRET) Assay. Reagents FRET reagents used were IgE labelled with Terbium (FRET donor), and soluble IgE receptor FcεRIα with a Y131A mutation, labelled with Alexa FluorTM 488 (FRET acceptor). Unlabelled FcεRIα was also used to generate a background control. The assay buffer consisted of 20 mM Tris pH7.2, 150 mM NaCl, and 0.002% Tween, 1% DMSO. Assay Reaction For most of the examples the assay was conducted according to the following: Each assay reaction was conducted in a volume of 25 μl in a 384-well half-volume plate. 10 point compound serial dilutions (3-fold) were generated in DMSO at a concentration of ×50 that of the final assay concentration (FAC). Compound solutions were then prepared by IgE-Tb diluting 10-fold in assay buffer. For the assay, 5 μl of diluted compound was added to 10 μl of IgE-Tb, followed by addition of 10111 FcεRIα-Y131A-AF488. FRET reagents FACs were 5 nM IgE-Tb, 25 nM FcεRIα-Y131A-AF488. Usually the top FAC of compound in the assay was 10 μM. The final DMSO concentration was 2%. The minimum signal (MIN) was measured by adding 5 μl unlabelled FcεRIα at 1 μM (FAC=200 nM) to the FRET reagents. The maximum FRET signal (MAX) was measured in wells containing FRET reagents but no compound. The assay was incubated for 2 hours at room temperature, protected from light and evaporation, and with gentle agitation. FRET Measurement Measurement of FRET for each well was carried out by exciting at 330 nm and measuring emission at 495/520 nm using an Envision plate reader (Perkin Elmer). FRET ratio was calculated as follows: Emission at 520/Emission at 495×1000. The FRET ratio was used for the data analysis. Data Analysis Z' was calculated as follows (σ=standard deviation and μ=mean): 1-((3×σMAX)+(3×σMIN))/(μMAX-/μMIN) Z' above 0.5 was considered a good assay. Background signal (MIN) was subtracted from all wells. Using the background subtracted values, the percent inhibition by compound in each test-well was calculated as follows: 100-Test-well FRET ratio/MAX FRET ratio×100. […]

T1 sequence (P0DOX4 224-547 N265Q/N371Q limits assumed): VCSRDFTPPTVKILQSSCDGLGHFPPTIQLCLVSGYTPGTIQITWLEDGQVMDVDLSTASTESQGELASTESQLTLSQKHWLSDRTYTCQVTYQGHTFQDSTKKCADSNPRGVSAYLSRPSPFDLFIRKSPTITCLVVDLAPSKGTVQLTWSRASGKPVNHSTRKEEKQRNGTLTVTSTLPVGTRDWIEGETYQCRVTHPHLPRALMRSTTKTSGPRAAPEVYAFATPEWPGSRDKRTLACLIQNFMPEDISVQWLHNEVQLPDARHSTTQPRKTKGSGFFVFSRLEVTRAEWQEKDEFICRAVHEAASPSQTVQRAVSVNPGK

Work on CC(C)CNS(=O)(=O)c1c2c(cc3cnc(C4CC4)cc13)CC(c1ncc(-c3cccnc3)[nH]1)CC2 (centres unmarked) [Example 22, 3-cyclopropyl-N-(2-methylpropyl)-8-(5-pyridin-3-yl-1H-imidazol-2-yl)-6,7,8,9-tetrahydrobenzo[g]isoquinoline-5-sulfonamide] yielded an IC50 of 0.1 to 1 µM.
In the case of Cc1cc(-n2cnnc2NC2CCc3c(cc4cnc(C5CC5)cc4c3S(=O)(=O)NCC(C)(C)F)C2)n(C)n1 (centres unmarked) [Example 24, 3-cyclopropyl-8-[[4-(2,5-dimethylpyrazol-3-yl)-1,2,4-triazol-3-yl]amino]-N-(2-fluoro-2-methyl-propyl)-6,7,8,9-tetrahydrobenzo[g]isoquinoline-5-sulfonamide formic acid], the IC50 is reported as 0.1 to 2 µM.
For Cc1ccc(N/C(=N/C#N)NC2CCc3cc4cnc(C5CC5)cc4c(S(=O)(=O)NCC(C)(C)F)c3C2)cc1 (centres unmarked) [Example 3, 2-Cyano-1-[3-cyclopropyl-5-[(2-fluoro-2-methyl-propyl)sulfamoyl]-6,7,8,9-tetrahydrobenzo[g]isoquinolin-7-yl]-3-(p-tolyl)guanidine], the IC50 was 0.1 to 1 µM.
Cc1nnc(-c2ccc(N[C@H]3CCc4cc5cnc(C6CC6)cc5c(S(=O)(=O)NCC(C)C)c4C3)cn2)o1 [Example 18, (7S)-3-cyclopropyl-7-[[6-(5-methyl-1,3,4-oxadiazol-2-yl)pyridin-3-yl]amino]-N-(2-methylpropyl)-6,7,8,9-tetrahydrobenzo[g]isoquinoline-5-sulfonamide] showed an IC50 of 0.05 to 0.1 µM.
Compound CC(C)CNS(=O)(=O)c1c2c(cc3cnc(C4CC4)cc13)CCC(Nc1nncn1-c1cccnc1)C2 (centres unmarked) [Example 15, 3-cyclopropyl-N-(2-methylpropyl)-7-[(4-pyridin-3-yl-1,2,4-triazol-3-yl)amino]-6,7,8,9-tetrahydrobenzo[g]isoquinoline-5-sulfonamide] has an IC50 of 0.1 to 1 µM.
Compound CC(C)CNS(=O)(=O)c1c2c(cc3cnc(C4CC4)cc13)CCC(c1ncc(-c3cccnc3)[nH]1)C2 (centres unmarked) [Example 21, 3-cyclopropyl-N-(2-methylpropyl)-7-(5-pyridin-3-yl-1H-imidazol-2-yl)-6,7,8,9-tetrahydrobenzo[g]isoquinoline-5-sulfonamide] has an IC50 of 0.001 to 0.05 µM.
Cc1cc(-n2cnnc2NC2CCc3cc4cnc(C5CC5)cc4c(S(=O)(=O)NCC(C)C)c3C2)n(C)n1 (centres unmarked) [Example 12, 3-cyclopropyl-7-[[4-(2,5-dimethylpyrazol-3-yl)-1,2,4-triazol-3-yl]amino]-N-(2-methylpropyl)-6,7,8,9-tetrahydrobenzo[g]isoquinoline-5-sulfonamide] was tested, and the IC50 was 0.1 to 1 µM.
Work on Cc1cc(-n2ccnc2NC2CCc3cc4cnc(C5CC5)cc4c(S(=O)(=O)NCC(C)C)c3C2)n(C)n1 (centres unmarked) [Example 20, 3-cyclopropyl-74(1-(2,5-dimethylpyrazol-3-yl)imidazol-2-yl]aminol-N-(2-methylpropyl)-6,7,8,9-tetrahydrobenzo[g]isoquinoline-5-sulfonamide] yielded an IC50 of 0.1 to 1 µM.
With Cc1nnc(-c2ccc(NC3CCc4cc5cnc(C6CC6)cc5c(S(=O)(=O)NCC(C)(C)F)c4C3)cn2)o1 (centres unmarked) [Example 4, 3-cyclopropyl-N-(2-fluoro-2-methylpropyl)-7-[[6-(5-methyl-1,3,4-oxadiazol-2-yl)pyridin-3-yl]amino]-6,7,8,9-tetrahydrobenzo[g]isoquinoline-5-sulfonamide] the IC50 was 0.1 to 1 µM.
In the case of CC(C)CNS(=O)(=O)c1c2c(cc3cnc(C4CC4)cc13)CC(C(=O)NCC(C)(C)C)CC2 (centres unmarked) [Example 6, 3-cyclopropyl-N-(2,2-dimethylpropyl)-5-(2-methylpropylsulfamoyl)-6,7,8,9-tetrahydrobenzo[g]isoquinoline-8-carboxamide], the IC50 is reported as 0.1 to 2 µM.
For CCNc1c(NC2CCc3cc4cnc(C5CC5)cc4c(S(=O)(=O)NCC(C)C)c3C2)c(=O)c1=O (centres unmarked) [Example 19, 3-cyclopropyl-7-[[2-(ethylamino)-3,4-dioxocyclobuten-1-yl]amino]-N-(2-methylpropyl)-6,7,8,9-tetrahydrobenzo[g]isoquinoline-5-sulfonamide], the IC50 was 0.001 to 0.05 µM.
Cc1cc(Nc2nncn2C2CCc3cc4cnc(C5CC5)cc4c(S(=O)(=O)NCC(C)(C)F)c3C2)n(C)n1 (centres unmarked) [Example 2, 3-cyclopropyl-7-[3-[(2,5-dimethylpyrazol-3-yl)amino]-1,2,4-triazol-4-yl]-N-(2-fluoro-2-methylpropyl)-6,7,8,9-tetrahydrobenzo[g]isoquinoline-5-sulfonamide] gave an IC50 of 0.1 to 1 µM.
CC(C)CNS(=O)(=O)c1c2c(cc3cnc(C4CC4)cc13)CCC(C(=O)NCC(C)(C)C)C2 (centres unmarked) [Example 5, 3-cyclopropyl-N-(2,2-dimethylpropyl)-5-(2-methylpropylsulfamoyl)-6,7,8,9-tetrahydrobenzo[g]isoquinoline-7-carboxamide] gave an IC50 of 0.05 to 0.1 µM.
Work on CC(C)CNS(=O)(=O)c1c2c(cc3cnc(C4CC4)cc13)CCC(n1cnnc1NCC1CC1)C2 (centres unmarked) [Example 16, 3-cyclopropyl-7-[3-(cyclopropylmethylamino)-1,2,4-triazol-4-yl]-N-(2-methylpropyl)-6,7,8,9-tetrahydrobenzo[g]isoquinoline-5-sulfonamide] yielded an IC50 of 0.001 to 0.05 µM.
For Cc1cc(Nc2nncn2C2CCc3cc4cnc(C5CC5)cc4c(S(=O)(=O)NCC(C)C)c3C2)n(C)n1 (centres unmarked) [Example 13, 3-cyclopropyl-7-[3-[(2,5-dimethylpyrazol-3-yl)amino]-1,2,4-triazol-4-yl]-N-(2-methylpropyl)-6,7,8,9-tetrahydrobenzo[g]isoquinoline-5-sulfonamide], the IC50 was 0.001 to 0.05 µM.
With CC(C)CNS(=O)(=O)c1c2c(cc3cnc(C4CC4)cc13)CCC(C(=O)NCc1ccccc1)C2 (centres unmarked) [Example 8, N-benzyl-3-cyclopropyl-5-(2-methylpropylsulfamoyl)-6,7,8,9-tetrahydrobenzo[g]isoquinoline-7-carboxamide] the IC50 was 0.001 to 0.05 µM.
Cc1cc(Nc2nncn2C2CCc3c(cc4cnc(C5CC5)cc4c3S(=O)(=O)NCC(C)(C)F)C2)n(C)n1 (centres unmarked) [Example 23, 3-cyclopropyl-8-[3-[(2,5-dimethylpyrazol-3-yl)amino]-1,2,4-triazol-4-yl]-N-(2-fluoro-2-methylpropyl)-6,7,8,9-tetrahydrobenzo[g]isoquinoline-5-sulfonamide] was tested, and the IC50 was 0.1 to 2 µM.
Compound Cc1nnc(-c2ccc(N[C@@H]3CCc4cc5cnc(C6CC6)cc5c(S(=O)(=O)NCC(C)C)c4C3)cn2)o1 [Example 17, (7R)-3-cyclopropyl-7-[[6-(5-methyl-1,3,4-oxadiazol-2-yl)pyridin-3-yl]amino]-N-(2-methylpropyl)-6,7,8,9-tetrahydrobenzo[g]isoquinoline-5-sulfonamide] has an IC50 of 0.1 to 1 µM.
CC(C)CNS(=O)(=O)c1c2c(cc3cnc(C4CC4)cc13)CCC(n1cnnc1Nc1cccnc1)C2 (centres unmarked) [Example 14, 3-cyclopropyl-N-(2-methylpropyl)-7-[3-(pyridin-3-ylamino)-1,2,4-triazol-4-yl]-6,7,8,9-tetrahydrobenzo[g]isoquinoline-5-sulfonamide] showed an IC50 of 0.001 to 0.05 µM.
For CC(C)CNS(=O)(=O)c1c2c(cc3cnc(C4CC4)cc13)CC(C(=O)NCc1ccccc1)CC2 (centres unmarked) [Example 7, N-benzyl-3-cyclopropyl-5-(2-methylpropylsulfamoyl)-6,7,8,9-tetrahydrobenzo[g]isoquinoline-8-carboxamide], the IC50 was 0.1 to 1 µM.

Source: patent US12410161B2, “Tetrahydrobenzo-quinoline sulfonamides derivative compounds” (UCB Biopharma SRL, priority 2019, dated 2025)
